# Measurements from ChEMBL document CHEMBL4765314, “Rational design and biological evaluation of gemfibrozil modified Xenopus GLP-1 derivatives as long-acting hypoglycemic agents” (Eur J Med Chem, 2020).
# Activity calls are given as the source filed them. No cut-off for these calls is given here. Starred links: 1 amine or outer side, 2 acyl side, 3 side chain; linkers in the order of their positions; H or OH if unused. Positions of bridges follow the written chain, without caps; N, C: chain ends. Non-standard residues stand in square brackets, D forms with d. Residues, ends and D or L forms follow the SMILES beside them. Groups on a side chain read outwards from the residue. Chains are numbered I, II in the order given. ξ: configuration not given here. *: point of attachment. X3 = Cc1ccc(C)c(OCCCC(C)(C)C(=O)OCC(=O)NCCCCCC(=O)N[C@@H](CCC(=O)NCCCC[C@H](NO[*:1])C(=O)[*:2])C(=O)O)c1; X2 = Cc1ccc(C)c(OCCCC(C)(C)C(=O)OCC(=O)NCCCCC(NC(=O)COC(=O)C(C)(C)CCCOc2cc(C)ccc2C)C(=O)*)c1; Glycoloyl(O-gemfibrozoyl) = Cc1ccc(C)c(OCCCC(C)(C)C(=O)OCC(=O)*)c1; γGlu = O=C(O)[C@H](CCC(=O)[*:2])N[*:1]; Thr(3ξ) = CC(O)[C@H](N)C(=O)O; Aun = NCCCCCCCCCCC(=O)O; ξK = NCCCCC(N)C(=O)O; Ahx = NCCCCCC(=O)O
# Tests used:
# [1] = molecular target: Glucagon-like peptide 1 receptor (Homo sapiens, UniProt P43220); experiment: Agonist activity at human GLP-1R expressed in HEK293 cells assessed as stimulation of cAMP accumulation incubated for 60 mins by HTRF assay; format: functional, cell-based
# Glucagon-like peptide 1 receptor, sequence (P43220 whole entry): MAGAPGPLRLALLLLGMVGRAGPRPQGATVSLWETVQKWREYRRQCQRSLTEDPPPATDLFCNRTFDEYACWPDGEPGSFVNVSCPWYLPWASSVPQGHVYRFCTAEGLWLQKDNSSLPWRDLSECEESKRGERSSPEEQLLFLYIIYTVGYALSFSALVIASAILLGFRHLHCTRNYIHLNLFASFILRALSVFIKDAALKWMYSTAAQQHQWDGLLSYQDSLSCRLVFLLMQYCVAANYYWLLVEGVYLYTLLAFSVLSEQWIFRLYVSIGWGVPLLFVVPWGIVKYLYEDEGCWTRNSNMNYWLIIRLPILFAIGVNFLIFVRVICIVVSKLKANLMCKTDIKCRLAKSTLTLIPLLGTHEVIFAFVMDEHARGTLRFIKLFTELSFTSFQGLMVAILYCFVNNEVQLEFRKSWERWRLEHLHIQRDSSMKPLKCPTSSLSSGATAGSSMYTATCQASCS
# Mus musculus [2] = experiment: Hypoglycemic activity in 12 hrs fasted ICR mouse assessed as reduction in blood glucose level at 25 nmol/kg, ip dosed 30 mins before glucose challenge measured up to 120 mins by OGTT method; format: functional, organism-based; settings: time 150.0 min
# [3] = Stability in Sprague-Dawley rat plasma assessed as half life at 1000 ng/ml measured up to 48 hrs under shaking condition by LC-MS/MS analysis; format: ADME, cell-free
# Albumin = Albumin (Homo sapiens, UniProt P02768); experiment: Binding affinity to human serum albumin assessed as retention factor by HPAC method; format: ADME
# Albumin, sequence (P02768 whole entry): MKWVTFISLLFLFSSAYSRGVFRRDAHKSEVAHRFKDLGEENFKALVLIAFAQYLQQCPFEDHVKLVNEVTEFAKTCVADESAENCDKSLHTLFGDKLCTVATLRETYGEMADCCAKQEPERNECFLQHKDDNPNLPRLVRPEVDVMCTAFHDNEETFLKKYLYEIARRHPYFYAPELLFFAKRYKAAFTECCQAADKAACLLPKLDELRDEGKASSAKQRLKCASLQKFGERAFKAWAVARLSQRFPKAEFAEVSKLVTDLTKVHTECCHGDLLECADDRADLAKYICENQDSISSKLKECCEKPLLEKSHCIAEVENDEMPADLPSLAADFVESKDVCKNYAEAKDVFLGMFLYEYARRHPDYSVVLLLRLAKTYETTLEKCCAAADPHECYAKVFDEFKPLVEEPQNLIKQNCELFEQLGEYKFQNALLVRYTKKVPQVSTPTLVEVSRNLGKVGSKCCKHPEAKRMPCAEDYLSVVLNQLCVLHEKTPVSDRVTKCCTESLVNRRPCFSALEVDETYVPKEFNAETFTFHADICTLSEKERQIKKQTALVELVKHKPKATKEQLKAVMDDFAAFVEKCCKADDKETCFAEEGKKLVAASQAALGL
# Mus musculus [4] = experiment: Hypoglycemic activity in non-fasted db/db […] mouse assessed as reduction in blood glucose level at 25 nmol/kg, ip dosed 30 mins before glucose challenge measured up to 120 mins by OGTT method; format: functional, organism-based
# [5] = Half life in Sprague-Dawley rat at 50 nmol/kg, sc measured up to 24 hrs by LC-MS/MS analysis; format: ADME, organism-based; settings: in vivo
# [6] = Tmax in Sprague-Dawley rat at 50 nmol/kg, sc measured up to 24 hrs by LC-MS/MS analysis; format: ADME, organism-based; settings: in vivo
# [7] = Stability in Sprague-Dawley rat plasma at 1000 ng/ml measured up to 48 hrs under shaking condition by LC-MS/MS analysis; format: ADME, cell-free
compound,measurement,setting,value
CC[C@H](C)[C@H](NC(=O)[C@H](CC(C)C)NC(=O)[C@H](Cc1c[nH]c2ccccc12)NC(=O)[C@H](CCC(=O)O)NC(=O)[C@@H](NC(=O)[C@H](Cc1ccccc1)NC(=O)[C@H](CCC(=O)O)NC(=O)C(CCCCNC(=O)CC[C@H](NC(=O)C(CCCCNC(=O)COC(=O)C(C)(C)CCCOc1cc(C)ccc1C)NC(=O)COC(=O)C(C)(C)CCCOc1cc(C)ccc1C)C(=O)O)NC(=O)[C@H](C)NC(=O)[C@H](C)NC(=O)[C@H](CCC(=O)O)NC(=O)[C@H](CCC(=O)O)NC(=O)[C@H](CCC(=O)O)NC(=O)[C@H](CC(C)C)NC(=O)[C@H](Cc1ccc(O)cc1)NC(=O)[C@H](CCC(=O)O)NC(=O)[C@@H](NC(=O)[C@@H](NC(=O)[C@H](CC(=O)O)NC(=O)[C@H](CC(N)=O)NC(=O)[C@@H](NC(=O)[C@H](Cc1ccc(O)cc1)NC(=O)[C@@H](NC(=O)CNC(=O)[C@H](CCC(=O)O)NC(=O)CNC(=O)[C@@H](N)Cc1cnc[nH]1)[C@@H](C)O)[C@@H](C)O)C(C)C)[C@@H](C)O)[C@@H](C)CC)C(=O)N[C@@H](CCCCN)C(=O)NCC(=O)N[C@@H](CCCCN)C(=O)N1CCC[C@H]1C(=O)N[C@@H](CO)C(=O)N[C@@H](CO)C(=O)NCC(=O)N[C@@H](C)C(=O)N1CCC[C@H]1C(=O)N1CCC[C@H]1C(=O)N1CCC[C@H]1C(=O)N[C@@H](C)C(=O)O (stereo partly drawn) (H-HGEGTYTNDVTEYLEEEAA[ξK]([γGlu-X2])EFIEWLIKGKPSSGAPPPA-OH),EC50,[1],0.11 nM
same,Activity,Mus musculus [2],Active
same,half-life at 1000 ng/ml,[3],30.4 h
same,K,Albumin,11.8
same,Activity,Mus musculus [4],Active
CC[C@H](C)[C@H](NC(=O)[C@H](CC(C)C)NC(=O)[C@H](Cc1c[nH]c2ccccc12)NC(=O)[C@H](CCC(=O)O)NC(=O)[C@@H](NC(=O)[C@H](Cc1ccccc1)NC(=O)[C@H](CCC(=O)O)NC(=O)[C@H](CCCCNC(=O)CC[C@H](NC(=O)CCCCCNC(=O)COC(=O)C(C)(C)CCCOc1cc(C)ccc1C)C(=O)O)NC(=O)[C@H](C)NC(=O)[C@H](C)NC(=O)[C@H](CCC(=O)O)NC(=O)[C@H](CCC(=O)O)NC(=O)[C@H](CCC(=O)O)NC(=O)[C@H](CC(C)C)NC(=O)[C@H](Cc1ccc(O)cc1)NC(=O)[C@H](CCC(=O)O)NC(=O)[C@@H](NC(=O)[C@@H](NC(=O)[C@H](CC(=O)O)NC(=O)[C@H](CC(N)=O)NC(=O)[C@@H](NC(=O)[C@H](Cc1ccc(O)cc1)NC(=O)[C@@H](NC(=O)CNC(=O)[C@H](CCC(=O)O)NC(=O)CNC(=O)[C@@H](N)Cc1cnc[nH]1)[C@@H](C)O)[C@@H](C)O)C(C)C)C(C)O)[C@@H](C)CC)C(=O)N[C@@H](CCCCN)C(=O)NCC(=O)N[C@@H](CCCCN)C(=O)N1CCC[C@H]1C(=O)N[C@@H](CO)C(=O)N[C@@H](CO)C(=O)NCC(=O)N[C@@H](C)C(=O)N1CCC[C@H]1C(=O)N1CCC[C@H]1C(=O)N1CCC[C@H]1C(=O)N[C@@H](CO)C(=O)O (stereo partly drawn) (H-HGEGTYTNDV[Thr(3ξ)]EYLEEEAAK([γGlu-Ahx-Glycoloyl(O-gemfibrozoyl)])EFIEWLIKGKPSSGAPPPS-OH),EC50,[1],0.083 nM
same,Activity,Mus musculus [2],Active
same,half-life at 1000 ng/ml,[3],17.2 h
same,K,Albumin,6.8
CC[C@H](C)[C@H](NC(=O)[C@H](CC(C)C)NC(=O)[C@H](Cc1c[nH]c2ccccc12)NC(=O)[C@H](CCC(=O)O)NC(=O)[C@@H](NC(=O)[C@H](Cc1ccccc1)NC(=O)[C@H](CCC(=O)O)NC(=O)[C@H](CCCCNC(=O)CC[C@H](NC(=O)CCCCCCCCCCNC(=O)COC(=O)C(C)(C)CCCOc1cc(C)ccc1C)C(=O)O)NC(=O)[C@H](C)NC(=O)[C@H](C)NC(=O)[C@H](CCC(=O)O)NC(=O)[C@H](CCC(=O)O)NC(=O)[C@H](CCC(=O)O)NC(=O)[C@H](CC(C)C)NC(=O)[C@H](Cc1ccc(O)cc1)NC(=O)[C@H](CCC(=O)O)NC(=O)[C@@H](NC(=O)[C@@H](NC(=O)[C@H](CC(=O)O)NC(=O)[C@H](CC(N)=O)NC(=O)[C@@H](NC(=O)[C@H](Cc1ccc(O)cc1)NC(=O)[C@@H](NC(=O)CNC(=O)[C@H](CCC(=O)O)NC(=O)CNC(=O)[C@@H](N)Cc1cnc[nH]1)C(C)O)C(C)O)C(C)C)[C@@H](C)O)[C@@H](C)CC)C(=O)N[C@@H](CCCCN)C(=O)NCC(=O)N[C@@H](CCCCN)C(=O)N1CCC[C@H]1C(=O)N[C@@H](CO)C(=O)N[C@@H](CO)C(=O)NCC(=O)N[C@@H](C)C(=O)N1CCC[C@H]1C(=O)N1CCC[C@H]1C(=O)N1CCC[C@H]1C(=O)N[C@@H](CO)C(=O)O (stereo partly drawn) (H-HGEG[Thr(3ξ)]Y[Thr(3ξ)]NDVTEYLEEEAAK([γGlu-Aun-Glycoloyl(O-gemfibrozoyl)])EFIEWLIKGKPSSGAPPPS-OH),EC50,[1],0.14 nM
same,Activity,Mus musculus [2],Active
same,half-life at 1000 ng/ml,[3],21.4 h
same,K,Albumin,7.6
same,half-life,[5],3.7 h
same,Tmax,[6],2.7 h
CC[C@H](C)[C@H](NC(=O)[C@H](CC(C)C)NC(=O)[C@H](Cc1c[nH]c2ccccc12)NC(=O)[C@H](CCC(=O)O)NC(=O)[C@@H](NC(=O)[C@H](Cc1ccccc1)NC(=O)[C@H](CCC(=O)O)NC(=O)[C@H](CCCCNC(=O)CC[C@H](NC(=O)CCCCCNC(=O)COC(=O)C(C)(C)CCCOc1cc(C)ccc1C)C(=O)O)NOC(=O)[C@H](C)NC(=O)[C@H](C)NC(=O)[C@H](CCC(=O)O)NC(=O)[C@H](CCC(=O)O)NC(=O)[C@H](CCC(=O)O)NC(=O)[C@H](CC(C)C)NC(=O)[C@H](Cc1ccc(O)cc1)NC(=O)[C@H](CCC(=O)O)NC(=O)[C@@H](NC(=O)[C@@H](NC(=O)[C@H](CC(=O)O)NC(=O)[C@H](CC(N)=O)NC(=O)[C@@H](NC(=O)[C@H](Cc1ccc(O)cc1)NC(=O)[C@@H](NC(=O)CNC(=O)[C@H](CCC(=O)O)NC(=O)CNC(=O)[C@@H](N)Cc1cnc[nH]1)[C@@H](C)O)[C@@H](C)O)C(C)C)[C@@H](C)O)[C@@H](C)CC)C(=O)N[C@@H](CCCCN)C(=O)NCC(=O)N[C@@H](CCCCN)C(=O)O (I: H-HGEGTYTNDVTEYLEEEAA / II: EFIEWLIKGK-OH; linker I:C-II:N via X3),EC50,[1],0.093 nM
same,Activity,Mus musculus [2],Active
same,Stabilty,[7],Stable
same,half-life at 1000 ng/ml,[3],14.2 h
H-HGEGTYTNDVTEYLEEEAAK([γGlu-Aun-Glycoloyl(O-gemfibrozoyl)])EFIEWLIKGKPSSGAPPSKKKKKK-OH,EC50,[1],0.11 nM
same,Activity,Mus musculus [2],Active
same,half-life at 1000 ng/ml,[3],20.1 h
same,K,Albumin,7.3
